Assay results taken from US20140107316A1, “DRUG DELIVERY CONJUGATES CONTAINING UNNATURAL AMINO ACIDS AND METHODS FOR USING” (priority 2012, published 2014).
pIC50: −log10 of the molar value. “Also recorded” adds a separate entry of the source. Where two headings read alike, the source gives them in different places.

Key:
KB tumors = assay: KB tumor assay in nu/nu mice; conditions: for CR (%) / Cures (%) / PR (%) / Toxicity Avg. Weight Loss / Toxicity Deaths (%): TIW, 2 weeks
Protocol: Inhibition of Tumor Growth in Mice. Four to seven week-old mice (Balb/c or nu/nu strains) were purchased from Harlan Sprague Dawley, Inc. (Indianapolis, Ind.). Normal rodent chow contains a high concentration of folic acid (6 mg/kg chow); accordingly, mice used were maintained on the folate-free diet (Harlan diet #TD00434) for 1 week before tumor implantation to achieve serum folate concentrations close to the range of normal human serum. For tumor cell inoculation, 1×10^6 M109 cells (Balb/c strain) or 1×10^6 KB cells (nu/nu strain) in 100 μL were injected in the subcutis of the dorsal medial area. Tumors were measured in two perpendicular directions every 2-3 days using a caliper, and their volumes were calculated as 0.5×L×W^2, where L=measurement of longest axis in mm and W=measurement of axis perpendicular to L in mm. […] Dosing solutions were prepared fresh each day in PBS and administered through the lateral tail vein of the mice.
General KB Tumor Assay. The anti-tumor activity of the compounds described herein, when administered intravenously (i.v.) to tumor-bearing animals, was evaluated in nu/nu mice bearing subcutaneous KB tumors. Approximately 8 days post tumor inoculation in the subcutis of the right axilla with 1×10^6 KB cells (average tumor volume at to=50-100 mm^3), in mice (5/group) were injected i.v. three times a week (TIW), for 3 weeks with […] of the drug delivery conjugate or with an equivalent dose volume of PBS (control), unless otherwise indicated. Tumor growth was measured using calipers at 2-day or 3-day intervals in each treatment group. Tumor volumes were calculated using the equation V=a×b^2/2, where “a” is the length of the tumor and “b” is the width expressed in millimeters.
Toxicity as Measured by Weight Loss. The percentage weight change of the mice was determined in mice (5 mice/group) on selected days post-tumor inoculation (PTI), and graphed.
In vivo activity against tumors.

[1] = Maximum tolerated dose (MTD); type: in vivo, female Sprague-Dawley rats; conditions: rat, in vivo, iv, BIW, 2 wks
Text: Maximum tolerated dose (MTD). […] For Example, EC1456 has a MTD of at least 0.51 μmol/kg and EC0531 has a MTD of 0.33 μmol/kg, […] when administered by i.v., BIW, 2 wks in female Sprague-Dawley rats. Histopathologic changes were not observed with doses of EC1456 at or below the MTD.

[2] = test system: folate receptor-positive KB cells; conditions: for In vitro specificity (fold): difference in IC50 between competed and non-competed group
Protocol: Inhibition of Cellular DNA Synthesis. The compounds described herein were evaluated using an in vitro cytotoxicity assay that predicts the ability of the drug to inhibit the growth of folate receptor-positive KB cells. The compounds were comprised of folate linked to a respective chemotherapeutic drug, as prepared according to the protocols described herein. The KB cells were exposed for up to 7 h at 37° C. to the indicated concentrations of folate-drug conjugate in the absence or presence of at least a 100-fold excess of folic acid. The cells were then rinsed once with fresh culture medium and incubated in fresh culture medium for 72 hours at 37° C. Cell viability was assessed using a ^3H-thymidine incorporation assay.
In vitro test against the various cancer cell lines. Cells are heavily seeded in 24-well Falcon plates and allowed to form nearly confluent monolayers overnight. Thirty minutes prior to the addition of the test compound, spent medium is aspirated from all wells and replaced with fresh folate-deficient RPMI medium (FFRPMI). A subset of wells are designated to receive media containing 100 μM folic acid. The cells in the designated wells are used to determine the targeting specificity. […] Following one rinse with 1 mL of fresh FFRPMI containing 10% heat-inactivated fetal calf serum, each well receives 1 mL of medium containing increasing concentrations of test compound (4 wells per sample) in the presence or absence of 100 μM free folic acid as indicated. Treated cells are pulsed for 2 h at 37° C., rinsed 4 times with 0.5 mL of media, and then chased in 1 mL of fresh medium up to 70 h. Spent medium is aspirated from all wells and replaced with fresh medium containing 5 μCi/mL ^3H-thymidine. Following a further 2 h 37° C. incubation, cells are washed 3 times with 0.5 mL of PBS and then treated with 0.5 mL of ice-cold 5% trichloroacetic acid per well. After 15 min, the trichloroacetic acid is aspirated and the cell material solubilized by the addition of 0.5 mL of 0.25 N sodium hydroxide for 15 min. A 450 μL aliquot of each solubilized sample is transferred to a scintillation vial containing 3 mL of Ecolume scintillation cocktail and then counted in a liquid scintillation counter. Final tabulated results are expressed as the percentage of ^3H-thymidine incorporation relative to untreated controls.
Folate receptor expressing cells. […] EC1456 was evaluated from 0.1-100 nM.

folate receptors (FRs) = target: T1, folate receptors (FRs) (Homo sapiens, UniProt P15328); assay: Relative affinity assay (3H-folic acid displacement on KB cells); type: binding; conditions: compared to folic acid (relative affinity=1), 10% serum/FDRPMI
T1 construct: FR-positive KB cells were heavily seeded into 24-well cell culture plates; endogenous in cells; host or cells: KB cells (human cervical carcinoma)
Protocol: Relative Affinity Assay. The affinity for folate receptors (FRs) relative to folate was determined according to a previously described method (Westerhof, G. R., J. H. Schornagel, et al. (1995) Mol. Pharm. 48: 459-471) with slight modification. Briefly, FR-positive KB cells were heavily seeded into 24-well cell culture plates and allowed to adhere to the plastic for 18 h. Spent incubation media was replaced in designated wells with folate-free RPMI (FFRPMI) supplemented with 100 nM ^3H-folic acid in the absence and presence of increasing concentrations of test article or folic acid. Cells were incubated for 60 min at 37° C. and then rinsed 3 times with PBS, pH 7.4. Five hundred microliters of 1% SDS in PBS, pH 7.4, were added per well. Cell lysates were then collected and added to individual vials containing 5 mL of scintillation cocktail, and then counted for radioactivity. Negative control tubes contained only the ^3H-folic acid in FFRPMI (no competitor). Positive control tubes contained a final concentration of 1 mM folic acid, and CPMs measured in these samples (representing non-specific binding of label) were subtracted from all samples.

cells in culture = assay: Cytotoxicity to cells in culture; type: cell-based; conditions: read-out: typical IC50, cells in culture
KB-CR tumors = assay: Cisplatin-resistant KB-CR tumor model; type: in vivo; conditions: 3 mg/kg, twice per week (T/Th), 2 weeks
[3] = read-out: 50% competition, competed group (excess folic acid)
[4] = 1.0 μmol/kg (2 doses), only 2 doses due to toxicity

T1 sequence (P15328 25-234): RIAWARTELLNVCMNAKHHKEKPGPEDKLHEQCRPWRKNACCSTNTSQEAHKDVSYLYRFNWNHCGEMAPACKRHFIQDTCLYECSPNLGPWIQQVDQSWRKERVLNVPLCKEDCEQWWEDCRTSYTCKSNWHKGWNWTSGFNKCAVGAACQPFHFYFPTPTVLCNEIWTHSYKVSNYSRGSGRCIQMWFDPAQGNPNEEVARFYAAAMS

Row | SMILES | In vivo activity (KB tumors) | In vitro specificity (fold) [2] [fold] | pIC50 [2, 3] | pIC50 ([2]; read-out: In vitro IC50) | Relative Affinity (folate receptors (FRs)) | also measured
1 | N=c1[nH]c(N)nc2ncc(CNc3ccc(C(=O)N[C@@H](CCC(=O)NNC(=O)OCCSSC[C@H](NC(=O)[C@H](CCC(=O)NC[C@H](O)[C@@H](O)[C@H](O)[C@H](O)CO)NC(=O)[C@H](CCC(=O)O)NC(=O)[C@H](CCC(=O)NC[C@H](O)[C@@H](O)[C@H](O)[C@H](O)CO)NC(=O)[C@H](CCC(=O)O)NC(=O)[C@H](CCC(=O)NC[C@H](O)[C@@H](O)[C@H](O)[C@H](O)CO)NC(=O)CC[C@H](NC(=O)c4ccc(NCc5cnc6nc(N)[nH]c(=O)c6n5)cc4)C(=O)O)C(=O)O)C(=O)O)cc3)nc12 [EC0531, reference compound] | Complete | 237 | 6.45 | 8.82 | – | MTD at 2 weeks [1]: 0.33 µmol/kg
2 | CCCC(=O)OCN(C(=O)[C@@H](NC(=O)[C@H]1CCCCN1C)C(C)CC)[C@H](C[C@@H](OC(C)=O)c1nc(C(=O)N[C@@H](Cc2ccc(O)cc2)C[C@H](C)C(=O)NNC(=O)OCCSSC[C@@H](NC(=O)[C@@H](CC(=O)O)NC(=O)[C@@H](CC(=O)O)NC(=O)[C@@H](CCCNC(=N)N)NC(=O)[C@@H](CC(=O)O)NC(=O)CC[C@@H](NC(=O)c2ccc(NCc3cnc4nc(N)[nH]c(=O)c4n3)cc2)C(=O)O)C(=O)O)cs1)C(C)C (some centres unmarked) [EC1299] | Complete | 778 | 6.15 | 9.05 | 0.29 | –
3 | CCCC(=O)OCN(C(=O)[C@@H](NC(=O)[C@H]1CCCCN1C)C(C)CC)[C@H](C[C@@H](OC(C)=O)c1nc(C(=O)N[C@@H](Cc2ccc(O)cc2)C[C@H](C)C(=O)NNC(=O)OCCSSC(C)(C)[C@@H](NC(=O)[C@@H](CC(=O)O)NC(=O)[C@@H](CC(=O)O)NC(=O)[C@@H](CCCNC(=N)N)NC(=O)[C@@H](CC(=O)O)NC(=O)CC[C@@H](NC(=O)c2ccc(NCc3cnc4nc(N)[nH]c(=O)c4n3)cc2)C(=O)O)C(=O)O)cs1)C(C)C (some centres unmarked) [EC1393] | – | 300 | 6.22 | 8.66 | 0.25 | –
4 | CCCC(=O)OCN(C(=O)[C@@H](NC(=O)[C@H]1CCCCN1C)C(C)CC)[C@H](C[C@@H](OC(C)=O)c1nc(C(=O)N[C@@H](Cc2ccc(O)cc2)C[C@H](C)C(=O)NNC(=O)OCCSSC[C@@H](NC(=O)[C@H](CC(=O)O)NC(=O)[C@H](CC(=O)O)NC(=O)[C@H](CCCNC(=N)N)NC(=O)[C@H](CC(=O)O)NC(=O)CC[C@H](NC(=O)c2ccc(NCc3cnc4nc(N)[nH]c(=O)c4n3)cc2)C(=O)O)C(=O)O)cs1)C(C)C (some centres unmarked) [EC1548] | Complete | 78 | 6.46 | 8.36 | 0.23 | –
5 | CCCC(=O)OCN(C(=O)[C@@H](NC(=O)[C@H]1CCCCN1C)C(C)CC)C(C[C@@H](OC(C)=O)c1nc(C(=O)N[C@@H](Cc2ccc(O)cc2)C[C@H](C)C(=O)NNC(=O)OCCSSC[C@@H](NC(=O)[C@@H](CC(=O)O)NC(=O)[C@H](CC(=O)O)NC(=O)[C@H](CCCNC(=N)N)NC(=O)[C@H](CC(=O)O)NC(=O)CC[C@H](NC(=O)c2ccc(NCc3cnc4nc(N)[nH]c(=O)c4n3)cc2)C(=O)O)C(=O)O)cs1)C(C)C (some centres unmarked) [EC1549] | Complete | 78 | 6.46 | 8.35 | 0.90 | –
6 | CCCCOCN(C(=O)[C@@H](NC(=O)[C@H]1CCCCN1C)C(C)CC)[C@H](C[C@@H](OC(C)=O)c1nc(C(=O)N[C@@H](Cc2ccc(O)cc2)C[C@H](C)C(=O)NNC(=O)OCCSSC[C@@H](NC(=O)[C@H](CCC(=O)NC[C@H](O)[C@@H](O)[C@H](O)[C@H](O)CO)NC(=O)[C@@H](CCC(=O)O)NC(=O)[C@H](CCC(=O)NC[C@H](O)[C@@H](O)[C@H](O)[C@H](O)CO)NC(=O)[C@@H](CCC(=O)O)NC(=O)[C@H](CCC(=O)NC[C@H](O)[C@@H](O)[C@H](O)[C@H](O)CO)NC(=O)CC[C@@H](NC(=O)c2ccc(NCc3cnc4nc(N)[nH]c(=O)c4n3)cc2)C(=O)O)C(=O)O)cs1)C(C)C (some centres unmarked) [EC1663] | – | – | – | – | – | whole animal toxicity (KB tumors; 0.5 μmol/kg TIW, 2 wk, compared to PBS control): did not exhibit significant host animal toxicity; also recorded: does not show any evidence of whole animal toxicity; partial responses (test animals) (KB tumors; intravenously 0.5 μmol/kg TIW, 2 wk): 4/4
7 | CCCC(=O)OCN(C(=O)[C@@H](NC(=O)[C@H]1CCCCN1C)C(C)CC)[C@H](C[C@@H](OC(C)=O)c1nc(C(=O)N[C@@H](Cc2ccc(O)cc2)C[C@H](C)C(=O)NN)cs1)C(C)C (some centres unmarked) [TubBH, tubulysin B hydrazide] | – | – | – | – | – | CR (%) (KB tumors; 0.5 μmol/kg): 0%; Cures (%) (KB tumors; 0.5 μmol/kg): 0%; PR (%) (KB tumors; 0.5 μmol/kg): 0%; Toxicity Avg. Weight Loss (KB tumors; 0.5 μmol/kg): <5.5%; Toxicity Deaths (%) (KB tumors; 0.5 μmol/kg): 0%; CR (%) (KB tumors; 0.75 μmol/kg): 0%; Cures (%) (KB tumors; 0.75 μmol/kg): 0%; PR (%) (KB tumors; 0.75 μmol/kg): 0%; Toxicity Avg. Weight Loss (KB tumors; 0.75 μmol/kg): >10%; Toxicity Deaths (%) (KB tumors; 0.75 μmol/kg): 20%; CR (%) (KB tumors; [4]): 0%; Cures (%) (KB tumors; [4]): 0%; PR (%) (KB tumors; [4]): 0%; Toxicity Avg. Weight Loss (KB tumors; [4]): >15%; Toxicity Deaths (%) (KB tumors; [4]): 20%; toxicity in relation to anti-tumor effect in mice (KB tumors; mouse, in vivo): dose-limiting toxicities in mice at levels that did not produce measurable anti-tumor effect; pIC50 (cells in culture): ~9.00
8 | N.N.[Cl][Pt][Cl] [cisplatin, reference compound] | – | – | – | – | – | partial responses (PRs) (KB-CR tumors): no PRs
